The values that follow come from patent publication US8232406B2, “c-MET protein kinase inhibitors” (Vertex Pharmaceuticals Incorporated, priority 2006, dated 2012).

c-MET, sequence (P08581 25-1390): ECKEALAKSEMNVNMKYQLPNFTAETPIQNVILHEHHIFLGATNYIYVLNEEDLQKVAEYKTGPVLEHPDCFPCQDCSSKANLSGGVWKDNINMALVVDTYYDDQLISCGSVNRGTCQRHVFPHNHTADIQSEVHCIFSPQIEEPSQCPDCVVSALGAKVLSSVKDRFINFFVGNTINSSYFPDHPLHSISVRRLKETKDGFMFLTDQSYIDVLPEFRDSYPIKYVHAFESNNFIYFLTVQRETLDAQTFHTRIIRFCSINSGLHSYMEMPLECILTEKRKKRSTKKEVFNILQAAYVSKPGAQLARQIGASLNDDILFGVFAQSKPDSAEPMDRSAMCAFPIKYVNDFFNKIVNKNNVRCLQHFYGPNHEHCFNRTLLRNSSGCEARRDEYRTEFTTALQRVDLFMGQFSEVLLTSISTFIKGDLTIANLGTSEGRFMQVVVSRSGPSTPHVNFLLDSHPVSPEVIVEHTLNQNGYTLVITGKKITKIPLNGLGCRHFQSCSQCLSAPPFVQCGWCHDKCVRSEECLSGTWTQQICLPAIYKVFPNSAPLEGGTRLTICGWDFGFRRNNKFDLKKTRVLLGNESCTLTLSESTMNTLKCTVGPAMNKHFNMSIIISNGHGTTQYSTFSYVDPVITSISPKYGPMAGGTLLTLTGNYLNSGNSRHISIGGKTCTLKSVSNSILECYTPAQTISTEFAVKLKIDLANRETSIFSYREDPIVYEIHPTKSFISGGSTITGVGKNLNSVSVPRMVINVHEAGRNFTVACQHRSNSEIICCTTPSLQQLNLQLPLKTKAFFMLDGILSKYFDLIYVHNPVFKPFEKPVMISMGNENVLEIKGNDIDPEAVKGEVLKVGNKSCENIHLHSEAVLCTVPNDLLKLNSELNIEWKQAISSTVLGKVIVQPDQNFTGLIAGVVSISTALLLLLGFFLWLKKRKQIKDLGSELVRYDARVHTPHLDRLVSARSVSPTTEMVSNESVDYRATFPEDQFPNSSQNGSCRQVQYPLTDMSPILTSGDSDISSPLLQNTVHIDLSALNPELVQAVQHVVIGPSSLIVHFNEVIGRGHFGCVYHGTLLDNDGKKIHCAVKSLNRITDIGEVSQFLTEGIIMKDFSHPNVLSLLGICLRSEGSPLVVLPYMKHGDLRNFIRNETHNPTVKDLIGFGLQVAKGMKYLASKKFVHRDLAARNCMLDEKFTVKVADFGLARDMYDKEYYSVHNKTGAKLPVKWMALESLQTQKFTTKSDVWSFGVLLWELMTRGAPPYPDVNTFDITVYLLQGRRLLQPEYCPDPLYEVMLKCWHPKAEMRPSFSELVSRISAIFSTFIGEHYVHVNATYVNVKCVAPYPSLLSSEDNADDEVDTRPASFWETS

The target of this experiment is c-MET (Homo sapiens, UniProt P08581). The experiment is described as follows: Ki determination for the inhibition of c-MET (standard radiometric 33P-ATP kinase assay, polyE4Y substrate). The format is biochemical. The following applies: 1.0 nM c-Met, 35 μM ATP, 0.5 mg/mL polyE4Y, 20 min; competitive tight-binding fit. The essentials:
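Radiometric assay of 33P transfer from 33P-ATP (35 μM) to polyE4Y (0.5 mg/mL) by 1.0 nM c-Met in 100 mM HEPES pH 7.5, 10 mM MgCl2, 25 mM NaCl, 0.01% BSA, 1 mM DTT. TCA-quenched after 20 min, filter-captured, scintillation-counted; Ki fitted to a competitive tight-binding model.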
As a reminder, the Ki is the dissociation constant of the complex between target and ligand, obtained from inhibition or displacement. The compound `Nc1ncc(-c2ccc(F)cc2)cc1-c1nnnn1-c1cccc(F)c1F` [I-A-223] came in with a Ki not above 100 nM.
To `Nc1ncc(-c2ccc(CN3CCCC3)cc2)cc1-c1nnnn1-c1cc(F)cc(F)c1Cl` [I-A-601] belongs not above 100 nM; to `CC(C)(C#N)c1ccc(-c2cnc(N)c(-c3nnnn3-c3cccc(F)c3F)c2)cc1` [I-A-266], not above 100 nM; to `CC(c1ccc(-c2cnc(N)c(-c3nnnn3-c3cccc(F)c3F)c2)cc1)N1CCCC1` (centres unmarked) [I-A-180], not above 100 nM.
To `Nc1ncc(-c2cccnc2)nc1-c1nncn1-c1cc(Cl)ccc1F` [I-A-34] belongs 100 to 1000 nM; to `Nc1ncc(-c2ccc(C3CCNCC3)s2)cc1-c1nnnn1-c1cccc(Cl)c1Cl` [I-A-416], not above 100 nM.
To `CN(C)Cc1ccc(-c2cnc(N)c(-c3nnnn3-c3c(F)cccc3F)c2)cc1` [I-A-619] belongs not above 100 nM; to `Nc1ncc(-c2ccc3nccnc3c2)cc1-c1nnnn1-c1cccc(F)c1F` [I-A-304], 100 to 1000 nM.
Turning to `CC(=O)Nc1cccc(-c2cnc(N)c(-c3nnnn3-c3cccc(F)c3C)c2)c1` [I-A-564], the Ki fell in the range of 100 to 1000 nM.
In the case of `CC(c1ccc(-c2cnc(N)c(-c3nnnn3-c3cccc(F)c3F)c2)s1)N1CCCC1` (centres unmarked) [I-A-262], the inhibitory constant (Ki) is not above 100 nM.
As to `COCCN(CCOC)Cc1ccc(-c2cnc(N)c(-c3nnnn3-c3cccc(Cl)c3Cl)c2)cc1` [I-A-101], the Ki was in the range of 100 to 1000 nM.
To `C[C@@H]1CC[C@@H](C)N1Cc1ccc(-c2cnc(N)c(-c3nnnn3-c3cccc(F)c3F)c2)cc1` [I-A-267] belongs not above 100 nM; to `CC1CN(Cc2ccc(-c3cnc(N)c(-c4nnnn4-c4cccc(Cl)c4Cl)c3)cc2)CC(C)O1` (centres unmarked) [I-A-103], 100 to 1000 nM; to `Nc1ncc(-c2ccc(CN3CCCC3)cc2)cc1-c1nnnn1-c1c(F)ccc(F)c1F` [I-A-380], not above 100 nM.
To `Nc1ncc(-c2cnn(C3CCN(CC(F)F)CC3)c2)cc1-c1nncn1-c1cccc(Cl)c1F` [I-A-460] belongs not above 100 nM.
Compound `Nc1ncc(-c2cnn(CC(=O)O)c2)cc1-c1nnnn1-c1cccc(F)c1F` [I-A-350] yielded an inhibition constant Ki of 100 to 1000 nM.
In turn, `CN(C(=O)Nc1ccc(-c2cnc(N)c(-c3nnnn3-c3cccc(F)c3F)c2)cc1)c1ccccc1` [I-A-279] returned a Ki of 100 to 1000 nM.
To `Nc1ncc(-c2cnn(CC(=O)N3CCCC3)c2)cc1-c1nnnn1-c1cccc(F)c1F` [I-A-364] belongs 100 to 1000 nM.
To `Cc1nnc(-c2cc(-c3cnn(C4CCNCC4)c3)cnc2N)n1-c1cccc(Cl)c1F` [I-A-454] belongs 100 to 1000 nM.
To `CC(C)(O)Cn1cc(-c2cnc(N)c(-c3nnnn3-c3cccc(F)c3F)c2)cn1` [I-A-348] belongs not above 100 nM.
`Nc1ccc(-c2cnc(N)c(-c3nnnn3-c3cccc(Cl)c3Cl)c2)cc1` [I-A-86] gave an inhibition constant (Ki) not above 100 nM.
`Nc1ncc(-c2ccc(CN3CCCC3=O)cc2)cc1-c1nnnn1-c1cccc(F)c1F` [I-A-203] showed a Ki not above 100 nM.
Compound `Nc1cccc(-c2cnc(N)c(-c3nnnn3-c3cccc(F)c3F)c2)c1` [I-A-201] had a Ki not above 100 nM.
On to `CN(C)Cc1ccc(-c2cnc(N)c(-c3nnnn3-c3cc(Cl)cc(Cl)c3)c2)cc1` [I-A-590], for which the Ki is 100 to 1000 nM.
To `Nc1ncc(-c2ccc(CN3CCC(N4CCCCC4)CC3)cc2)cc1-c1nnnn1-c1cccc(Cl)c1Cl` [I-A-98] belongs not above 100 nM; to `CC(=O)Nc1ccc(-c2cnc(N)c(-c3nnnn3-c3cccc(Cl)c3C)c2)cc1` [I-A-575], 100 to 1000 nM.
To `Nc1ncc(-c2ccc(C3CCOC(=O)N3)cc2)cc1-c1nnnn1-c1cccc(F)c1F` (centres unmarked) [I-A-325] belongs not above 100 nM; to `Nc1ncc(-c2cnn([C@H]3CCNC3)c2)cc1-c1nnnn1-c1cccc(Cl)c1Cl` [I-A-413], not above 100 nM; to `Nc1ncc(-c2cnn([C@@H]3CCNC3)c2)nc1-c1nnnn1-c1cccc(F)c1F` [I-A-660], not above 100 nM.
To `Cc1nnc(-c2cc(-c3ccc(CN(C)C)cc3)cnc2N)n1-c1cccc(F)c1Cl` [I-A-389] belongs 100 to 1000 nM.
Take `CN(C)Cc1ccc(-c2cnc(N)c(-c3nnnn3-c3cccc(F)c3Cl)c2)cc1` [I-A-387]: the Ki was in the range of 100 to 1000 nM.
In the case of `CC(=O)Nc1cc(-c2cnc(N)c(-c3nnnn3-c3cccc(F)c3F)c2)ccc1CN1CCCC1` [I-A-339], the Ki was not above 100 nM.
Compound `CN1CCN(Cc2ccc(-c3cnc(N)c(-c4nncn4-c4cccc(F)c4F)n3)cc2)CC1` [I-A-6] came in with a Ki not above 100 nM.
To `Nc1ncc(-c2cc3c(s2)CCNCC3)nc1-c1nnnn1-c1cccc(F)c1F` [I-A-653] belongs not above 100 nM; to `CC(C)N1CCC(n2cc(-c3cnc(N)c(-c4nnnn4-c4cccc(F)c4F)c3)cn2)CC1` [I-A-448], not above 100 nM; to `COC(=O)[C@H](CC(C)C)NC(=O)Nc1cccc(-c2cnc(N)c(-c3nnnn3-c3cccc(F)c3F)c2)c1` [I-A-326], 100 to 1000 nM.
To `Cc1nn(C2CCNCC2)c(C)c1-c1cnc(N)c(-c2nnnn2-c2cccc(Cl)c2F)c1` [I-A-479] belongs 100 to 1000 nM.
To `Nc1ncc(-c2ccc(CN3CCCC3)c(F)c2)cc1-c1nnnn1-c1cccc(F)c1F` [I-A-213] belongs not above 100 nM; to `Nc1ncc(-c2ccc(CN3CCOCC3)cc2)nc1-c1nnc(O)n1-c1cccc(F)c1F` [I-A-16], 100 to 1000 nM; to `Nc1ncc(-c2ccc(N3CCCC3)nc2)cc1-c1nnnn1-c1cccc(Cl)c1Cl` [I-A-82], 100 to 1000 nM.
In the case of `Nc1ncc(-c2ccc(N3CCNCC3)cc2)cc1-c1nc2cnccc2n1-c1cccc(F)c1F` [I-D-23], the Ki is not above 100 nM.
In the case of `CCCN1CCC(n2cc(-c3cnc(N)c(-c4nnnn4-c4cccc(Cl)c4F)c3)cn2)CC1` [I-A-470], the Ki was not above 100 nM.
As for `N#Cc1ccc(-c2cnc(N)c(-c3nncn3-c3cccc(F)c3F)c2)cc1` [I-A-113], the Ki was 100 to 1000 nM.
For `CC(c1ccc(-c2cnc(N)c(-c3nnnn3-c3cccc(Cl)c3Cl)c2)cc1)N(C)C` (centres unmarked) [I-A-100], the Ki is not above 100 nM.
To `N#CCN1CCC(n2cc(-c3cnc(N)c(-c4nnnn4-c4cccc(F)c4F)c3)cn2)CC1` [I-A-462] belongs not above 100 nM; to `CN(C)CCNC(=O)c1ccc(-c2cnc(N)c(-c3nnnn3-c3cccc(Cl)c3Cl)c2)cc1` [I-A-124], not above 100 nM; to `Nc1ncc(-c2ccc(CN3CCCC3)s2)cc1-c1nnnn1-c1cccc(F)c1F` [I-A-186], not above 100 nM.
To `Nc1ncc(-c2cccnc2)cc1-c1nnnn1-c1c(F)cccc1Cl` [I-A-617] belongs 100 to 1000 nM.
Take `CC(=O)Nc1ccc(-c2cnc(N)c(-c3nnnn3-c3c(F)cccc3F)c2)cc1` [I-A-607]: the Ki fell in the range of 100 to 1000 nM.
As for `Cc1ccc(Cl)cc1-n1nnnc1-c1cc(-c2cnn(C3CCNCC3)c2)cnc1N` [I-A-632], the inhibition constant (Ki) lay within 100 to 1000 nM.
To `Nc1ncc(-c2cnn(C3COCOC3)c2)cc1-c1nnnn1-c1cccc(F)c1F` [I-A-432] belongs not above 100 nM.
To `Nc1ncc(-c2ccc(CN3CC[C@H](O)C3)cc2)cc1-c1nnnn1-c1cccc(F)c1F` [I-A-131] belongs not above 100 nM; to `NCc1ccc(-c2cnc(N)c(-c3nnnn3-c3cccc(F)c3F)c2)cn1` [I-A-155], 100 to 1000 nM.
Consider `CNC(=O)Cn1cc(-c2cnc(N)c(-c3nnnn3-c3cccc(F)c3F)c2)cn1` [I-A-369], for which the inhibitory constant (Ki) fell in the range of 100 to 1000 nM.
Turning to `Nc1ncc(-c2ccc(Cl)cc2)cc1-c1nncn1-c1cccc(F)c1F` [I-A-114], the Ki was in the range of 100 to 1000 nM.
To `Nc1ncc(-c2cn[nH]c2)cc1-c1nnnn1-c1cccc(F)c1F` [I-A-366] belongs not above 100 nM; to `Nc1ncc(-c2cnn(C3CCNCC3)c2)cc1-c1nnnn1-c1cc(Cl)ccc1F` [I-A-635], not above 100 nM; to `CCCN1CCc2cc(-c3cnc(N)c(-c4nnnn4-c4cccc(F)c4F)c3)sc2CC1` [I-A-519], not above 100 nM.
To `Cc1nnc(-c2cc(-c3ccc(CN4CCCC4)cc3)cnc2N)n1-c1cccc(F)c1Cl` [I-A-388] belongs 100 to 1000 nM; to `CC(C)(C)NC(=O)Nc1cccc(-c2cnc(N)c(-c3nnnn3-c3cccc(F)c3F)c2)c1` [I-A-328], not above 100 nM; to `CN(C)Cc1ccc(-c2cnc(N)c(-c3nnnn3-c3cccc(Cl)c3F)c2)cc1` [I-A-360], not above 100 nM.
To `Nc1ncc(-c2cnn(CC(O)CO)c2)cc1-c1nc2cnccc2n1-c1cccc(F)c1F` [I-D-10] belongs not above 100 nM; to `COc1ccc(F)cc1-n1nnnc1-c1cc(-c2ccc(CN(C)C)cc2)cnc1N` [I-A-606], 100 to 1000 nM; to `CN1CCN(c2ccc(-c3cnc(N)c(-c4ncsc4-c4cccc(Cl)c4Cl)c3)cc2)CC1` [I-C-11], 100 to 1000 nM.
For the compound `Nc1ncc(-c2cnn(C3CCNCC3)c2)cc1-c1nnnn1-c1cc(F)ccc1F` [I-A-625], the Ki was 100 to 1000 nM.
Consider `CC(=O)Nc1cccc(-c2cnc(N)c(-c3nnnn3-c3c(F)cccc3F)c2)c1` [I-A-610], for which the Ki was 100 to 1000 nM.
`CC(=O)Nc1ccc(-c2cnc(N)c(-c3nnnn3-c3cc(F)cc(F)c3Cl)c2)cc1` [I-A-583] registered a Ki of 100 to 1000 nM.
`Nc1ncc(-c2csc(C3CCNCC3)c2)nc1-c1nnnn1-c1cccc(F)c1F` [I-A-654] had a Ki of 100 to 1000 nM.
To `Nc1ncc(-c2ccc(C3NC(=O)NC3=O)cc2)cc1-c1nnnn1-c1cccc(F)c1F` (centres unmarked) [I-A-257] belongs not above 100 nM; to `Cc1nnc(-c2cc(-c3cnn(C4CCNCC4)c3)cnc2N)n1-c1cccc(F)c1Cl` [I-A-390], 100 to 1000 nM; to `CN(C)S(=O)(=O)N1CCC(n2cc(-c3cnc(N)c(-c4nnnn4-c4cccc(Cl)c4F)c3)cn2)CC1` [I-A-442], not above 100 nM.
`CN(C)CC(=O)Nc1ccc(-c2cnc(N)c(-c3nnnn3-c3cccc(F)c3F)c2)cc1` [I-A-191] showed a Ki not above 100 nM.
To `CN(C)Cc1ccc(-c2cnc(N)c(-c3nnnn3-c3cccc(F)c3F)c2)cn1` [I-A-154] belongs 100 to 1000 nM; to `Nc1ncc(-c2ccc3c(c2)CCNC3)cc1-c1nnnn1-c1cccc(F)c1F` [I-A-509], 100 to 1000 nM.
